Here are results for 29 compounds from ChEMBL document CHEMBL5120835, “Structure-activity relationships of 1,4-bis(arylsulfonamido)-benzene or naphthalene-N,N'-diacetic acids with varying C2-substituents as inhibitors of Keap1-Nrf2 protein-protein interaction” (Eur J Med Chem, 2022).

For data set [1], the target named is T1, Keap1/Nrf2 (Homo sapiens, UniProt Q14145). Kind of data set: Inhibition of recombinant human Keap1 Kelch domain (321 to 609 residues) expressed in Escherichia coli BL21 (DE3)pLysS cells/Nrf2 (unknown origin) protein-protein interaction using FITC-LDEETGEFL-NH2 as fluorescent substrate preincubated with compound for 30 mins followed by substrate addition and measured after 1 hr by fluorescence polarization assay relative to control.
T1 sequence (Q16236 whole entry, the tested form may be a part): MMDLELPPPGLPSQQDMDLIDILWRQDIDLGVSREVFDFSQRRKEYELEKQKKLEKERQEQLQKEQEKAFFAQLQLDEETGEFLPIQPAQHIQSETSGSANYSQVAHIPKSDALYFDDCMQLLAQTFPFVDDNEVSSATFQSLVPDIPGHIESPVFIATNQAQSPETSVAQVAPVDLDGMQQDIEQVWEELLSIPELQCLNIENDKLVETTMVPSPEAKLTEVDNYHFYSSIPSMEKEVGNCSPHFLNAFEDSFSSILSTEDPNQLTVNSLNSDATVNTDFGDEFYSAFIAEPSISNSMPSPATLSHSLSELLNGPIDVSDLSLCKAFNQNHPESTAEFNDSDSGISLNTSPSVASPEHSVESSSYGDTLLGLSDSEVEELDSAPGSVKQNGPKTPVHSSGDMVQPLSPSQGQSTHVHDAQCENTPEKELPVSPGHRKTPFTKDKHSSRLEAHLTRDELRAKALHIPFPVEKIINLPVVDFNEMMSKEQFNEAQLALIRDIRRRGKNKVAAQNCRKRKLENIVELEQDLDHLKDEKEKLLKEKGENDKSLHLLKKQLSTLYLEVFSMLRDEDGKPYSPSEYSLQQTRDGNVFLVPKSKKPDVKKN
T1 sequence (Q14145 whole entry, the tested form may be a part): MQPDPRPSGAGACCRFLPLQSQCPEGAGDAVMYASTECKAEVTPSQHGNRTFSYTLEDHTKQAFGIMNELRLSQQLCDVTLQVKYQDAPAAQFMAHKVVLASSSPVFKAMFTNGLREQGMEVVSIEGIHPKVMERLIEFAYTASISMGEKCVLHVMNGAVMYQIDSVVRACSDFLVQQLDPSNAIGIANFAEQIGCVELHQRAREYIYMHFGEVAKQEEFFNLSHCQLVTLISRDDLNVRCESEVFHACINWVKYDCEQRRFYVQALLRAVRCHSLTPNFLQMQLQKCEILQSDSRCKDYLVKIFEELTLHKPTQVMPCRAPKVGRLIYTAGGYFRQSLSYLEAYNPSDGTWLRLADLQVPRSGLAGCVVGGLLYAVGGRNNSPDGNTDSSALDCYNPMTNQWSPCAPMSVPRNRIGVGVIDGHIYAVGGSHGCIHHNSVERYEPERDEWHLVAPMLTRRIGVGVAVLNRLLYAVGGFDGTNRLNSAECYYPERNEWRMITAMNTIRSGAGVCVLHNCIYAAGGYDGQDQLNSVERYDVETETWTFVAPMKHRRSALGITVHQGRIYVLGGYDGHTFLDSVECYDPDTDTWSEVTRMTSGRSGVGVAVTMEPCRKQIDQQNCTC

A short description of data set [2]: Lipophilicity, logD of the compound at pH 6.5. Type of data set: physicochemical. The settings on record: buffer.
Data set [3] in a line: Upregulation of NQO1 mRNA expression in human NCM460D cells assessed as fold change in gene expression at 100 uM measured after 24 hrs by qRT-PCR analysis relative to control. Type of data set: functional.
Data set [4] has as its system NCM460D. In words: Upregulation of NQO1 mRNA expression in human NCM460D cells at 1 to 100 uM measured after 24 hrs by qRT-PCR analysis. As to conditions: dose 1-100 µM. Type of data set: functional, cell-based.
The nature of data set [5]: Lipophilicity, logD of the compound at pH 7.4. Type of data set: physicochemical. As to conditions: buffer.
For data set [6], the system named is NCM460D. Kind of data set: Upregulation of HMOX1 mRNA expression in human NCM460D cells at 1 to 100 uM measured after 24 hrs by qRT-PCR analysis. The settings on record: dose 1-100 µM. The data set is classed as functional, cell-based.
Data set [7] deals with T1, Keap1/Nrf2. In words: Inhibition of His-tagged Keap1 kelch domain/Nrf2 (unknown origin) protein-protein interaction using FITC-LDEETGEFL-NH2 peptide as substrate preincubated for 30 mins followed by substrate addition and measured after 1 hr by TR-FRET assay.
In data set [8] the test system is NCM460D. In words: Upregulation of GSTM3 mRNA expression in human NCM460D cells at 1 to 100 uM measured after 24 hrs by qRT-PCR analysis. As to conditions: dose 1-100 µM. Type of data set: functional, cell-based.

The source made the active and inactive calls. No cut-off for these calls is given here.

With `COc1ccc(S(=O)(=O)N(CC(=O)O)c2ccc(N(CC(=O)O)S(=O)(=O)c3ccc(OC)cc3)c(OCCCc3ccccc3)c2)cc1`, the 50% inhibitory concentration (IC50) on Keap1/Nrf2 [1] is 950 nM. The same measure, in the same setting: under `Cc1cccc(S(=O)(=O)N(CC(=O)O)c2ccc(N(CC(=O)O)S(=O)(=O)c3cccc(C)c3)c(OCc3ccccc3)c2)c1` stands 1000 nM; under `COc1ccc(S(=O)(=O)N(CC(=O)O)c2ccc(N(CC(=O)O)S(=O)(=O)c3ccc(OC)cc3)c(OCc3cccnc3)c2)cc1`, 760 nM. With `Cc1ccc(S(=O)(=O)N(c2ccc(N([C@@H](C)C(=O)O)S(=O)(=O)c3ccc(C)cc3)c(OCc3ccc(F)cc3)c2)[C@@H](C)C(=O)O)cc1`, at Keap1/Nrf2 [1], the 50% inhibitory concentration (IC50) amounted to 1270 nM. Same read-out and setting: under `COc1ccc(S(=O)(=O)N(CC(=O)O)c2ccc(N(CC(=O)O)S(=O)(=O)c3ccc(OC)cc3)c(OCc3ccc(C)cc3)c2)cc1` stands 620 nM.

Take `COc1ccc(S(=O)(=O)N(CC(=O)O)c2ccc(N(CC(=O)O)S(=O)(=O)c3ccc(OC)cc3)c(Oc3ccc4ccccc4c3)c2)cc1`: the IC50 on Keap1/Nrf2 [1] is 890 nM. Same read-out and setting: under `Cc1ccc(S(=O)(=O)N(CC(=O)O)c2ccc(N(CC(=O)O)S(=O)(=O)c3ccc(C)cc3)c(OCc3ccc4ccccc4c3)c2)cc1` stands 380 nM; under `Cc1cc(C)c(S(=O)(=O)N(CC(=O)O)c2ccc(N(CC(=O)O)S(=O)(=O)c3c(C)cc(C)cc3C)c(OCc3ccc(F)cc3)c2)c(C)c1`, 3730 nM.

On to `Cc1ccc(S(=O)(=O)N(CC(=O)O)c2cc(OCc3ccc(F)cc3)c(N(CC(=O)O)S(=O)(=O)c3ccc(C)cc3)c3ccccc23)cc1`, for which the logD is 1.94 in data set [2] and 0.33 in data set [5] (read-out: logD). For the same compound, the “fold change (FC)” value in data set [3] is given as 15. For the same compound, the result with NCM460D [4], in the data set with NCM460D [6] and with NCM460D [8] was Active. For the same compound, the IC50 against Keap1/Nrf2 [7] stood at 14.2 nM; at Keap1/Nrf2 [1], 65 nM.

Turning to `O=C(O)CN(c1ccc(N(CC(=O)O)S(=O)(=O)c2ccc(F)cc2)c(OCc2ccccc2)c1)S(=O)(=O)c1ccc(F)cc1`, the IC50 on Keap1/Nrf2 [1] stood at 2410 nM. Turning to `Cc1ccc(S(=O)(=O)N(Cc2nnn[nH]2)c2ccc(N(Cc3nnn[nH]3)S(=O)(=O)c3ccc(C)cc3)c(OCc3ccc(F)cc3)c2)cc1`, the IC50 at Keap1/Nrf2 [1] was determined as 3920 nM.

For `COc1ccc(S(=O)(=O)N(CC(=O)O)c2ccc(N(CC(=O)O)S(=O)(=O)c3ccc(OC)cc3)c(OCc3ccc(F)cc3)c2)cc1`, the IC50 on Keap1/Nrf2 [1] came out at 910 nM. The same measure, in the same setting: under `Cc1ccc(S(=O)(=O)N(CC(=O)O)c2ccc(N(CC(=O)O)S(=O)(=O)c3ccc(C)cc3)c(OCc3ccccc3)c2)cc1` stands 450 nM; under `O=C(O)CN(c1ccc(N(CC(=O)O)S(=O)(=O)c2ccc(-c3ccccc3)cc2)c(OCc2ccccc2)c1)S(=O)(=O)c1ccc(-c2ccccc2)cc1`, 750 nM. The same measure, in the same setting: under `COc1ccc(COc2cc(N(CC(=O)O)S(=O)(=O)c3ccc(OC)cc3)ccc2N(CC(=O)O)S(=O)(=O)c2ccc(OC)cc2)cc1` stands 770 nM; under `COc1ccc(S(=O)(=O)N(CC(=O)O)c2ccc(N(CC(=O)O)S(=O)(=O)c3ccc(OC)cc3)c(OCc3cccc4ccccc34)c2)cc1`, 790 nM; under `COc1ccc(S(=O)(=O)N(CC(=O)O)c2ccc(N(CC(=O)O)S(=O)(=O)c3ccc(OC)cc3)c(OCCc3ccccc3)c2)cc1`, 1020 nM.

On to `COc1ccc(S(=O)(=O)N(CC(=O)O)c2ccc(N(CC(=O)O)S(=O)(=O)c3ccc(OC)cc3)c(-c3ccccc3)c2)cc1`, for which the IC50 on Keap1/Nrf2 [1] worked out at 3470 nM. For `COc1ccc(S(=O)(=O)N(CC(=O)O)c2ccc(N(CC(=O)O)S(=O)(=O)c3ccc(OC)cc3)c3ccccc23)cc1`, the logD in data set [2] was -1.38; in data set [5] it was -2.93. As to `COc1ccc(S(=O)(=O)N(CC(=O)O)c2ccc(N(CC(=O)O)S(=O)(=O)c3ccc(OC)cc3)c(Oc3ccc(-c4ccccc4)cc3)c2)cc1`, the IC50 on Keap1/Nrf2 [1] amounted to 1190 nM. Same read-out and setting: as for `COc1ccc(S(=O)(=O)N(CC(=O)O)c2ccc(N(CC(=O)O)S(=O)(=O)c3ccc(OC)cc3)c(COc3ccccc3)c2)cc1`, the figure is 2620 nM; as for `Cc1ccc(S(=O)(=O)N(CC(=O)O)c2ccc(N(CC(=O)O)S(=O)(=O)c3ccc(C)cc3)c(OCc3ccc(-c4ccccc4)cc3)c2)cc1`, 440 nM.

Turning to `COc1ccc(S(=O)(=O)N(CC(=O)O)c2ccc(N(CC(=O)O)S(=O)(=O)c3ccc(OC)cc3)c(N(C)Cc3ccccc3)c2)cc1`, the IC50 at Keap1/Nrf2 [1] was 6170 nM.

Turning to `O=C(O)CN(c1ccc(N(CC(=O)O)S(=O)(=O)c2ccc(Br)cc2)c(OCc2ccccc2)c1)S(=O)(=O)c1ccc(Br)cc1`, the IC50 on Keap1/Nrf2 [1] was 590 nM. The same measure, in the same setting: as for `COc1ccc(S(=O)(=O)N(CC(=O)O)c2ccc(N(CC(=O)O)S(=O)(=O)c3ccc(OC)cc3)c(OCc3ccc4ccccc4c3)c2)cc1`, the figure is 480 nM; as for `Cc1ccc(S(=O)(=O)N(CC(=O)O)c2ccc(N(CC(=O)O)S(=O)(=O)c3ccc(C)cc3)c(OCc3ccc(F)cc3)c2)cc1`, 450 nM; as for `COc1ccc(S(=O)(=O)N(CC(=O)O)c2ccc(N(CC(=O)O)S(=O)(=O)c3ccc(OC)cc3)c(OCc3ccc(-c4ccccc4)cc3)c2)cc1`, 390 nM. On the same count and under the same terms, under `COc1ccc(S(=O)(=O)N(CC(=O)O)c2ccc(N(CC(=O)O)S(=O)(=O)c3ccc(OC)cc3)c(OCc3ccc(Oc4ccccc4)cc3)c2)cc1` stands 830 nM; under `O=C(O)CN(c1ccc(N(CC(=O)O)S(=O)(=O)c2ccc(C(F)(F)F)cc2)c(OCc2ccccc2)c1)S(=O)(=O)c1ccc(C(F)(F)F)cc1`, 1760 nM.
